Experimental data as given in patent publication US9187429B2, “Phenyl-tetrahydroisoquinoline derivatives” (Hoffmann-La Roche Inc., priority 2012, dated 2015).

Tests used:
CYP11B2 = CYP11B2 (Homo sapiens (Human), UniProt P19099); assay: G-402 cellular enzyme assay, human CYP11B2 (aldosterone release); type: cell-based; details: G-402 cells expressing human CYP11B2, 1 μM Deoxycorticosterone
Description: (§1) The expression plasmids contains the ORF for either human/cyno CYP11B1 or CYP11B2 under the control of a suitable promoter (CMV-promoter) and a suitable resistance marker (neomycin). Using standard techniques the expression plasmid is transfected into G-402 cells and these cells are then selected for expressing the given resistance markers. Individual cell-clones are then selected and assessed for displaying the desired enzymatic activity using 11-Deoxycorticosterone (Cyp 11B2) or 11-Deoxycortisol (Cyp 11B1) as a substrate.
(§2) G-402 cells expressing CYP11 constructs were established as described above and maintained in McCoy's 5a Medium Modified, ATCC Catalog No. 30-2007 containing 10% FCS and 400 μg/ml G418 (Geneticin) at 37° C. under an atmosphere of 5% CO2/95% air. […] For assaying enzymatic activity, cells were plated onto 96 well plates and incubated for 16 h. An aliquot of the supernatant is then transferred and analyzed for the concentration of the expected product (Aldosterone for CYP11B2; Cortisol for CYP11B1). The concentrations of these steroids can be determined using HTRF assays from CisBio analyzing either Aldosterone or Cortisol.
(§3) Inhibition of the release of produced steroids can be used as a measure of the respective enzyme inhibition by test compounds added during the cellular enzyme assay. The dose dependent inhibition of enzymatic activity by a compound is calculated by means of plotting added inhibitor concentrations (x-axes) vs. measured steroid/product level (y-axes). The inhibition is then calculated by fitting the following 4-parameter sigmoidal function (Morgan-Mercer-Flodin (MMF) model) to the raw data points using the least squares method:
(§4) [formula] wherein, A is the maximum y value, B is the EC50 factor determined using XLFit, C is the minimum y value and D is the slope value.
(§5) EC50 values for compounds claimed herein were tested with the G402-based assay system described. Cyp 11B2 enzyme activity was tested in presence of 1 μM Deoxycorticosterone and variable amounts of inhibitors; Cyp 11B1 enzyme activity was tested in presence of 1 μM Deoxycortisol and variable amounts of inhibitors.

human CYP11B1 = human CYP11B1 (Homo sapiens (Human), UniProt P15538); assay: G-402 cellular enzyme assay, human CYP11B1 (cortisol release); type: cell-based; details: G-402 cells expressing human CYP11B1, 1 μM Deoxycortisol
Chain of human CYP11B1 (P15538 25-503): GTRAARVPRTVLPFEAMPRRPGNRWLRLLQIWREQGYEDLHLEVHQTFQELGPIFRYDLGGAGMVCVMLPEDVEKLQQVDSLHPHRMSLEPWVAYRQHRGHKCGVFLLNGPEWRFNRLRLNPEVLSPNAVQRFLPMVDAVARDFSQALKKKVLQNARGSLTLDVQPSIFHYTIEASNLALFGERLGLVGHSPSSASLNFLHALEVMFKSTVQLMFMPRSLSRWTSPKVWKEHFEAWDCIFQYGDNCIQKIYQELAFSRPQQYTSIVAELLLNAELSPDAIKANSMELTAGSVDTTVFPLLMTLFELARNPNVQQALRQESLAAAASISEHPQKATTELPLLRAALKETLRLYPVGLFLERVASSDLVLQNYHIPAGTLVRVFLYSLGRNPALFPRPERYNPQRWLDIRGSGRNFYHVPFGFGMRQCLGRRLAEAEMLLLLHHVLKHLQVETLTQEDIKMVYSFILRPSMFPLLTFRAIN
Description: as §1, §2, §3, §4, §5

Chain of CYP11B2 (P19099 25-503): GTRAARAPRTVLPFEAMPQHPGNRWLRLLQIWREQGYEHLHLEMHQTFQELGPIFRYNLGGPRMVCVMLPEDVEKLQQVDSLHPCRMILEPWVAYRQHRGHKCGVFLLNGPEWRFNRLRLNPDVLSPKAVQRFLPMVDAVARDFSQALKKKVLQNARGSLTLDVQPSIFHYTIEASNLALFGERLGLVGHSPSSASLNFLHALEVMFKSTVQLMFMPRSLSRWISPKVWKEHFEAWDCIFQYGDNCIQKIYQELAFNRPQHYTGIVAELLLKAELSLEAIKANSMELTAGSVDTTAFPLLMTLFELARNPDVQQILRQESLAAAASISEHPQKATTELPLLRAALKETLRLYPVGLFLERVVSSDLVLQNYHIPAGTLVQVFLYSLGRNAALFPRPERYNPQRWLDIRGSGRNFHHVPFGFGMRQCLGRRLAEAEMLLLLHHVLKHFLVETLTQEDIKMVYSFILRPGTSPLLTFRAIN

Row | Structure (SMILES) | EC50 (CYP11B2) [µM] | EC50 (human CYP11B1) [µM]
1 | CCC(=O)NC1CCc2c(-c3ccc(C(F)(F)F)cc3)cncc21 (racemic) [Example 49, (rac)-N-(4-(4-(Trifluoromethyl)phenyl)-6,7-dihydro-5H-cyclopenta[c]pyridin-7-yl)propionamide] | 0.079 | 4.04
2 | CCCNS(=O)(=O)NC1CCCc2c(-c3ccc(C#N)cc3)cncc21 (racemic) [Example 3, (rac)-N-[4-(4-Cyanophenyl)-5,6,7,8-tetrahydroisoquinolin-8-yl]-N′-propylsulfuric diamide] | 0.052 | 0.291
3 | CC1(COC2CCc3c(-c4ccc(C(F)(F)F)cc4)cncc32)COC1 (racemic) [Example 103, (rac)-7-((3-Methyloxetan-3-yl)methoxy)-4-(4-(trifluoromethyl)phenyl)-6,7-dihydro-5H-cyclopenta[c]pyridine] | 0.0002 | 0.0023
4 | CCC(=O)NC1CCc2c(-c3ccc(C(F)(F)F)c(F)c3)cncc21 (racemic) [Example 90, (rac)-N-(4-(3-Fluoro-4-(trifluoromethyl)phenyl)-6,7-dihydro-5H-cyclopenta[c]pyridin-7-yl)propionamide] | 0.0267 | 1.9
5 | CCS(=O)(=O)NC1CCc2c(-c3ccc(C(F)(F)F)cc3)cncc21 (single isomer, unassigned; (-)) [Example 65, (−)-(S or R)—N-(4-(4-(Trifluoromethyl)phenyl)-6,7-dihydro-5H-cyclopenta[c]pyridin-7-yl)ethanesulfonamide] | 1.63 | 1.08
6 | CCC(=O)NC1CCCc2c(-c3ccc(Cl)cc3)cncc21 (single isomer, unassigned; (-)) [Example 25, (−)-(S or R)—N-(4-(4-Chlorophenyl)-5,6,7,8-tetrahydroisoquinolin-8-yl)propionamide] | 0.467 | 23.1
7 | CCC(=O)NC1CCc2c(-c3ccc(C(F)(F)F)cc3F)cncc21 (racemic) [Example 61, (rac)-N-(4-(2-Fluoro-4-(trifluoromethyl)phenyl)-6,7-dihydro-5H-cyclopenta[c]pyridin-7-yl)propionamide] | 0.044 | 3.61
8 | COC(=O)COC1CCc2c(-c3ccc(C(F)(F)F)cc3)cncc21 (racemic) [Example 98, (rac)-Methyl 2-(4-(4-(trifluoromethyl)phenyl)-6,7-dihydro-5H-cyclopenta[c]pyridin-7-yloxy)acetate] | 0.0196 | 0.628
9 | CS(=O)(=O)NC1CCc2c(-c3ccc(C(F)(F)F)cc3)cncc21 (racemic) [Example 95, (rac)-N-[4-(4-Trifluoromethyl-phenyl)-6,7-dihydro-5H-[2]pyrindin-7-yl]-methanesulfonamide] | 1.8 | 1.96
10 | CCC(=O)NC1CCCc2c(-c3ccc(C(F)(F)F)c(F)c3)cncc21 (single isomer, unassigned; (-)) [Example 40, (−)-(S or R)—N-(4-(3-Fluoro-4-(trifluoromethyl)phenyl)-5,6,7,8-tetrahydroisoquinolin-8-yl)propionamide] | 4.85 | 32.5
11 | CCS(=O)(=O)NC1CCc2c(-c3ccc(C(F)(F)F)c(F)c3)cncc21 (single isomer, unassigned; (-)) [Example 72, (−)-(S or R)—N-(4-(3-Fluoro-4-(trifluoromethyl)phenyl)-6,7-dihydro-5H-cyclopenta[c]pyridin-7-yl)ethanesulfonamide] | 16.5 | –
12 | CCC(=O)NC1CCCc2c(-c3ccc(C#N)cc3)cncc21 (racemic) [Example 5, (rac)-N-(4-(4-Cyanophenyl)-5,6,7,8-tetrahydroisoquinolin-8-yl)propionamide] | – | 0.76
13 | CCC(=O)NC1CCCc2c(-c3ccc(C(F)(F)F)cc3)cncc21 (single isomer, unassigned; (-)) [Example 22, (−)-(S or R)—N-(4-(4-(Trifluoromethyl)phenyl)-5,6,7,8-tetrahydroisoquinolin-8-yl)propionamide] | 6.38 | –
14 | CCC(=O)NC1CCCc2c(-c3ccc(C#N)cc3)cncc21 (single isomer, unassigned; (+)) [Example 7, (+)-(R or S)—N-(4-(4-Cyanophenyl)-5,6,7,8-tetrahydroisoquinolin-8-yl)propionamide] | – | 0.263
15 | CCC(=O)NC1CCc2c(-c3ccc(C(F)(F)F)cc3)cncc21 (single isomer, unassigned; (-)) [Example 50, (−)-(S or R)—N-(4-(4-(Trifluoromethyl)phenyl)-6,7-dihydro-5H-cyclopenta[c]pyridin-7-yl)propionamide] | 5.77 | –
16 | CCC(=O)NC1CCCc2c(-c3ccc(C#N)cc3)cncc21 (single isomer, unassigned; (-)) [Example 6, (−)-(S or R)—N-(4-(4-Cyanophenyl)-5,6,7,8-tetrahydroisoquinolin-8-yl)propionamide] | – | 11.7

Further molecules by falling EC50 (CYP11B2), results first:

Row | EC50 (CYP11B2) [µM] | EC50 (human CYP11B1) [µM] | Structure (SMILES)
17 | 9.1 | – | C[C@@H](O)C(=O)NC1CCc2c(-c3ccc(C(F)(F)F)cc3)cncc21 (single isomer, unassigned; (-)) [Example 53, (−)-(R)-2-Hydroxy-N—((S or R)-4-(4-(trifluoromethyl)phenyl)-6,7-dihydro-5H-cyclopenta[c]pyridin-7-yl)propanamide]
18 | 5.75 | – | C[C@@H](O)C(=O)NC1CCCc2c(-c3ccc(C(F)(F)F)cc3)cncc21 (single isomer, unassigned; (+)) [Example 47, (+)-(R)-2-Hydroxy-N—[(R or S)-4-(4-trifluoromethyl-phenyl)-5,6,7,8-tetrahydro-isoquinolin-8-yl]-propionamide]
19 | 1.68 | 14.7 | CCC(=O)NC1CCc2c(-c3ccc(C(F)(F)F)cc3F)cncc21 (single isomer, unassigned; (-)) [Example 62, (−)-(S or R)—N-(4-(2-Fluoro-4-(trifluoromethyl)phenyl)-6,7-dihydro-5H-cyclopenta[c]pyridin-7-yl)propionamide]
20 | 1.66 | – | CCC(=O)NC1CCc2c(-c3ccc(F)c(C)c3)cncc21 (single isomer, unassigned; (-)) [Example 59, (−)-(S or R)—N-(4-(4-Fluoro-3-methylphenyl)-6,7-dihydro-5H-cyclopenta[c]pyridin-7-yl)propionamide]
21 | 1.22 | – | CCC(=O)NC1CCCc2c(-c3ccc(Cl)cc3F)cncc21 (single isomer, unassigned; (-)) [Example 31, (−)-(S or R)—N-(4-(4-Chloro-2-fluorophenyl)-5,6,7,8-tetrahydroisoquinolin-8-yl)propionamide]
22 | 0.28 | 14.2 | CCS(=O)(=O)NC1CCc2c(-c3ccc(C(F)(F)F)cc3)cncc21 (single isomer, unassigned; (+)) [Example 66, (+)-(R or S)—N-(4-(4-(Trifluoromethyl)phenyl)-6,7-dihydro-5H-cyclopenta[c]pyridin-7-yl)ethanesulfonamide]
23 | 0.072 | 0.488 | Cc1ccc(C2(O)CCCc3c(-c4ccc(C#N)cc4)cncc32)cc1C (single isomer, unassigned; (-)) [Example 16, (−)-(R or S)-4-(8-(3,4-Dimethylphenyl)-8-hydroxy-5,6,7,8-tetrahydroisoquinolin-4-yl)benzonitrile]
24 | 0.042 | 0.173 | N#Cc1ccc(-c2cncc3c2CCCC3N)cc1 (racemic) [Example 1, (rac)-4-(8-Amino-5,6,7,8-tetrahydroisoquinolin-4-yl)benzonitrile]
